Experimental data from ChEMBL document CHEMBL1201862, “PubChem BioAssay data set” (2004).
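Values below derive from 48-hour exposures of cells grown in 96-well plates, with endpoints linearly interpolated between the two concentrations bracketing the appropriate inhibition level. GI50 = concentration required for 50% inhibition of growth.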 Active and inactive are the calls of the source. Rule as the data show it: active = GI50 up to about 1.1 µM and inactive = higher.

What was measured:
Experiment in all cases: NCI anticancer screen, dose series, 48 h
COLO 205 = tested on: COLO 205
SK-OV-3 = tested on: SK-OV-3
M14 = tested on: M14
SN12C = tested on: SN12C
786-0 = tested on: 786-0
KM12 = tested on: KM12
OVCAR-3 = tested on: OVCAR-3
UO-31 = tested on: UO-31
NCI-H522 = tested on: NCI-H522
RPMI-8226 = tested on: RPMI-8226
A549 = tested on: A549
Hs-578T = tested on: Hs-578T
MOLT-4 = tested on: MOLT-4
NCI-H460 = tested on: NCI-H460
MDA-MB-231 = tested on: MDA-MB-231
SNB-75 = tested on: SNB-75
RXF 393 = tested on: RXF 393
EKVX = tested on: EKVX
UACC-62 = tested on: UACC-62
NCI/ADR-RES = tested on: NCI/ADR-RES

Measured: GI50

C=C1C(=O)O[C@H]2C[C@@H]1[C@@H](O)[C@H](O)[C@@H](C)CCCC(C)=CCC[C@@]2(C)O
inactive: COLO 205 7.03 µM | SK-OV-3 62.5 µM | M14 13.6 µM | SN12C 17 µM | 786-0 15.8 µM | KM12 30.9 µM | OVCAR-3 15.1 µM | UO-31 14.8 µM | NCI-H522 4.24 µM | RPMI-8226 5.05 µM | A549 35.1 µM | Hs-578T 18 µM | MOLT-4 4.84 µM | NCI-H460 23 µM | MDA-MB-231 28 µM | SNB-75 45.5 µM | RXF 393 22.7 µM | EKVX 54 µM | UACC-62 16.6 µM

CC(C)CC(NC(=O)C(COc1ccc([N+](=O)[O-])cc1)Cc1ccccc1)C(=O)Nc1ccccc1 (centres undefined)
inactive: COLO 205 9.04 µM | SK-OV-3 13.8 µM | M14 9.53 µM | SN12C 37.5 µM | 786-0 7.08 µM | KM12 5.85 µM | OVCAR-3 41.1 µM | UO-31 7 µM | NCI-H522 12.5 µM | RPMI-8226 40.5 µM | A549 16.1 µM | MOLT-4 22.1 µM | NCI-H460 4.29 µM | MDA-MB-231 21.1 µM | SNB-75 2.38 µM | NCI/ADR-RES 12.7 µM | RXF 393 16.3 µM | EKVX 23.6 µM | UACC-62 11.1 µM

O=C(O)CCC(NC(=O)c1ccc(CNc2nc3ccccc3nc2C(=O)O)cc1)C(=O)O (centres undefined)
inactive: COLO 205 > 100 µM | SK-OV-3 > 100 µM | M14 > 100 µM | SN12C > 100 µM | 786-0 > 100 µM | KM12 > 100 µM | OVCAR-3 > 100 µM | UO-31 > 100 µM | RPMI-8226 > 100 µM | A549 > 100 µM | Hs-578T > 100 µM | MOLT-4 > 100 µM | MDA-MB-231 > 100 µM | SNB-75 > 100 µM | NCI/ADR-RES > 100 µM | EKVX > 100 µM | UACC-62 > 100 µM

Cc1cc(C)nc(NC(=S)Nc2ccc([N+](=O)[O-])cc2)c1
inactive: COLO 205 > 100 µM | 786-0 > 100 µM | KM12 > 100 µM | UO-31 > 100 µM | RPMI-8226 > 100 µM | Hs-578T > 100 µM | MOLT-4 > 100 µM | NCI-H460 > 100 µM | MDA-MB-231 > 100 µM | SNB-75 > 100 µM | NCI/ADR-RES > 100 µM | RXF 393 > 100 µM | EKVX > 100 µM | UACC-62 > 100 µM

COC(=O)Nc1nc2cc(NC(=O)c3cccs3)ccc2[nH]1
inactive: COLO 205 29.6 µM | SK-OV-3 29 µM | M14 33.7 µM | SN12C 57.1 µM | 786-0 50.9 µM | KM12 21.6 µM | OVCAR-3 19.2 µM | UO-31 10.1 µM | RPMI-8226 18.8 µM | A549 46.9 µM | Hs-578T 15.1 µM | MOLT-4 33.7 µM | NCI-H460 40 µM | MDA-MB-231 62.1 µM | SNB-75 15.7 µM | NCI/ADR-RES 17.9 µM | RXF 393 22.8 µM | EKVX 40.3 µM | UACC-62 52.2 µM

Cc1cc2c(c(C(=O)NCC(=O)N[C@@H](C)C(=O)OCc3ccccc3)c1)Oc1c(cc(C)cc1C(=O)NCC(=O)N[C@@H](C)C(=O)OCc1ccccc1)S2
inactive: COLO 205 > 100 µM | SK-OV-3 > 100 µM | M14 > 100 µM | SN12C > 100 µM | 786-0 > 100 µM | KM12 > 100 µM | OVCAR-3 22 µM | UO-31 > 100 µM | RPMI-8226 43.3 µM | A549 > 100 µM | Hs-578T 26.2 µM | MOLT-4 78 µM | NCI-H460 > 100 µM | MDA-MB-231 34.4 µM | SNB-75 15.8 µM | NCI/ADR-RES > 100 µM | RXF 393 20.1 µM | EKVX > 100 µM | UACC-62 30.8 µM

CCOC(=O)c1c(-c2ccc(OC)c(O)c2)c(C#N)c(=S)n(C2OC(CO)C(O)C(O)C2O)c1-c1ccccc1 (centres undefined)
inactive: COLO 205 > 100 µM | M14 > 100 µM | SN12C > 100 µM | 786-0 > 100 µM | KM12 > 100 µM | UO-31 > 100 µM | RPMI-8226 > 100 µM | A549 > 100 µM | Hs-578T > 100 µM | MOLT-4 > 100 µM | NCI-H460 > 100 µM | NCI/ADR-RES > 100 µM | RXF 393 > 100 µM | EKVX 1.6 µM | UACC-62 > 100 µM

CC12C(=O)CC(CC1=O)C2(C)C
inactive: COLO 205 > 100 µM | SK-OV-3 > 100 µM | M14 > 100 µM | SN12C > 100 µM | 786-0 > 100 µM | KM12 > 100 µM | OVCAR-3 > 100 µM | UO-31 > 100 µM | NCI-H522 > 100 µM | RPMI-8226 > 100 µM | A549 > 100 µM | Hs-578T > 100 µM | MOLT-4 > 100 µM | NCI-H460 > 100 µM | SNB-75 > 100 µM | NCI/ADR-RES > 100 µM | EKVX > 100 µM | UACC-62 > 100 µM

CCC(=O)Nc1ccc(NCC(=O)Nc2ccc(OC)cc2)cc1
inactive: COLO 205 31.8 µM | SK-OV-3 8.67 µM | M14 49.3 µM | SN12C 18.1 µM | 786-0 20.3 µM | KM12 17.4 µM | OVCAR-3 25.2 µM | UO-31 45.5 µM | NCI-H522 15.2 µM | RPMI-8226 32.9 µM | A549 54 µM | Hs-578T 30.3 µM | MOLT-4 39 µM | SNB-75 13.7 µM | NCI/ADR-RES 28.1 µM | RXF 393 16.4 µM | EKVX 16.7 µM | UACC-62 19.1 µM

C[C@H](NC(=O)CNC(=O)CCCCCC(=O)NCC(=O)N[C@@H](C)C(=O)OCc1ccccc1)C(=O)OCc1ccccc1
inactive: COLO 205 > 100 µM | SK-OV-3 > 100 µM | M14 > 100 µM | SN12C > 100 µM | 786-0 > 100 µM | KM12 > 100 µM | OVCAR-3 > 100 µM | RPMI-8226 > 100 µM | A549 > 100 µM | Hs-578T > 100 µM | MOLT-4 > 100 µM | MDA-MB-231 > 100 µM | SNB-75 > 100 µM | NCI/ADR-RES > 100 µM | RXF 393 > 100 µM | EKVX > 100 µM | UACC-62 > 100 µM

COc1cc2c(cc1C)NC(=O)/C2=C/c1c(Cl)n(C)c2ccccc12
inactive: COLO 205 5.11 µM | SK-OV-3 12.4 µM | M14 10.6 µM | SN12C 12.8 µM | 786-0 12.7 µM | KM12 3.34 µM | OVCAR-3 4.11 µM | UO-31 7.05 µM | RPMI-8226 3.13 µM | A549 10.2 µM | Hs-578T 3.42 µM | MOLT-4 2.15 µM | NCI-H460 6.71 µM | MDA-MB-231 12.9 µM | SNB-75 3.34 µM | NCI/ADR-RES 3.61 µM | RXF 393 4.1 µM | EKVX 6.68 µM | UACC-62 5.73 µM
